Data on 13 molecules can be found in patent US7541359B2, “N-heteroarylpiperazinyl ureas as modulators of fatty acid amide hydrolase” (Janssen Pharmaceutica N.V., priority 2005, dated 2009).

Holding throughout (assay type): biochemical
For test [1], the target named is T1, Rat FAAH (Rattus norvegicus, UniProt P97612).
T1 construct: expressed in transfected cells; host or cells: SK-N-MC cells, electroporated, G418-selected clones
T1 sequence (P97612 1-579): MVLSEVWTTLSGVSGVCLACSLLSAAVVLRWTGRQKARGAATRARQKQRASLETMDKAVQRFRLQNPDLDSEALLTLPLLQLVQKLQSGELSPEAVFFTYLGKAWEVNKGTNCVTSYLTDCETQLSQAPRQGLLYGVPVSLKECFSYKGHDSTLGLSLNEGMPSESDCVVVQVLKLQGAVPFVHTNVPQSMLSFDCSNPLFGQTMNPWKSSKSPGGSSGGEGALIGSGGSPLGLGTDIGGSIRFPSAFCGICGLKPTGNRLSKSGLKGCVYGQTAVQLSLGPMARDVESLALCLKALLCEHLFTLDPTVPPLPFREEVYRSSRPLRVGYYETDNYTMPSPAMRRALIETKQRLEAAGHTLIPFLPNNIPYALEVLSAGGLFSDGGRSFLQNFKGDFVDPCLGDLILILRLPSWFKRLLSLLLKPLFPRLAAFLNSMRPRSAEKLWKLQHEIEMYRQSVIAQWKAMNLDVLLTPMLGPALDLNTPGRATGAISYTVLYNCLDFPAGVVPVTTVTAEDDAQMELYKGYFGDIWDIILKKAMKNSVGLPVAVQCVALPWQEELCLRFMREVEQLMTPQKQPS
The test is described as follows: Assay Method 3: FAAH assay, homogenate of SK-N-MC cells transfected with rat FAAH. Particulars: rat FAAH transfected SK-N-MC cell homogenate; 3H-AEA tracer 80 nM; rt 1 h. Here is the method: Assay Method 3 A. Transfection of Cells with Rat FAAH
A 10-cm tissue culture dish with a confluent monolayer of SK-N-MC cells was split 2 days (d) prior to transfection. Using sterile technique, the media was removed and the cells were detached from the dish by the addition of trypsin. One fifth of the cells were then placed onto a new 10-cm dish. Cells were grown in a 37° C. incubator with 5% CO2 in Minimal Essential Media Eagle with 10% Fetal Bovine Serum. After 2 d, cells were approximately 80% confluent. These cells were removed from the dish with trypsin and pelleted in a clinical centrifuge. The pellet was re-suspended in 400 μL complete media and transferred to an electroporation cuvette with a 0.4 cm gap between the electrodes. Supercoiled rat FMH cDNA (1 μg) was added to the cells and mixed. The voltage for the electroporation was set at 0.25 kV, and the capacitance was set at 960 μF. After electroporation, the cells were diluted into complete media (10 mL) and plated onto four 10-cm dishes. Because of the variability in the efficiency of electroporation, four different concentrations of cells were plated. […] After 10 d, dishes were analyzed for surviving colonies of cells. Dishes with well-isolated colonies were used. Cells from individual colonies were isolated and tested.
The assay mixture consisted of 50 μL of the cell homogenate, 10 μL of the test compound, and 40 μL of anandamide [1-^3H-ethanolamine] (^3H-AEA, Perkin-Elmer, 10.3 Ci/mmol), which was added last, for a final tracer concentration of 80 nM. The reaction mixture was incubated at rt for 1 h. During the incubation, 96-well Multiscreen filter plates (catalog number MAFCNOB50: Millipore, Bedford, Mass., USA) were loaded with 25 μL of activated charcoal (Multiscreen column loader, catalog number MACL09625, Millipore) and washed once with 100 μL of MeOH. […] After the 1 h incubation, 60 μL of the reaction mixture were transferred to the charcoal plates, which were then assembled on top of the DYNEX plates using Centrifuge Alignment Frames (catalog number MACF09604, Millipore). The unbound labeled ethanolamine was centrifuged through to the bottom plate (5 min at 2000 rpm), which was preloaded with the scintillant, as described above. The plates were sealed and left at rt for 1 h before counting on a Hewlett Packard TopCount.

The target of test [2] is T2, FAAH (Homo sapiens, UniProt O00519).
T2 sequence (O00519 1-579): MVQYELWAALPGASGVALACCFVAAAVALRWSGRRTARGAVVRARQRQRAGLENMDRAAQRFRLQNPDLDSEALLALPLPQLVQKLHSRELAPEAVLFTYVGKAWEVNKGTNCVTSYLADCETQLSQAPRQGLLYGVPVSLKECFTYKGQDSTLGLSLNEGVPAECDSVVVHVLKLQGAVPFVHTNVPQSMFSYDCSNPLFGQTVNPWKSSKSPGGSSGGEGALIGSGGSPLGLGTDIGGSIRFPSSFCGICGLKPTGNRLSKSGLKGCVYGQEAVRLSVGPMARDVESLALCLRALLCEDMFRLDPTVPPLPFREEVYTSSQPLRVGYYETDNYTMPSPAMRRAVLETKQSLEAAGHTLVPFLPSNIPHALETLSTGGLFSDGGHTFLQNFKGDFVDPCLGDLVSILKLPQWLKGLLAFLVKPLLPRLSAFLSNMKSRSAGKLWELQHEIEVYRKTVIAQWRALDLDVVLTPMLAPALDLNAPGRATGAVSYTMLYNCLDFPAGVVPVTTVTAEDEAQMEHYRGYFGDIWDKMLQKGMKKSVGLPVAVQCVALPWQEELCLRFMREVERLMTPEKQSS
Briefly: Assay Method 2: FAAH assay, homogenate of SK-N-MC cells transfected with human FAAH. On the set-up: expressed in transfected cells; host or cells: SK-N-MC cells, electroporated, G418-selected clones. To be noted: human FAAH transfected SK-N-MC cell homogenate; 3H-AEA tracer 80 nM; rt 1 h. Here is the method:
Assay Method 2 A. Transfection of Cells with Human FAAH
A 10-cm tissue culture dish with a confluent monolayer of SK-N-MC cells was split 2 days (d) prior to transfection. Using sterile technique, the media was removed and the cells were detached from the dish by the addition of trypsin. One fifth of the cells were then placed onto a new 10-cm dish. Cells were grown in a 37° C. incubator with 5% CO2 in Minimal Essential Media Eagle with 10% Fetal Bovine Serum. After 2 d, cells were approximately 80% confluent. These cells were removed from the dish with trypsin and pelleted in a clinical centrifuge. The pellet was re-suspended in 400 μL complete media and transferred to an electroporation cuvette with a 0.4 cm gap between the electrodes. Supercoiled human FMH cDNA (1 μg) was added to the cells and mixed. The voltage for the electroporation was set at 0.25 kV, and the capacitance was set at 960 μF. After electroporation, the cells were diluted into complete media (10 mL) and plated onto four 10-cm dishes. Because of the variability in the efficiency of electroporation, four different concentrations of cells were plated. The ratios used were 1:20, 1:10, and 1:5, with the remainder of the cells being added to the fourth dish. The cells were allowed to recover for 24 h before adding the selection media (complete media with 600 μg/mL G418). After 10 d, dishes were analyzed for surviving colonies of cells. Dishes with well-isolated colonies were used. Cells from individual colonies were isolated and tested.
The assay mixture consisted of 50 μL of the cell homogenate, 10 μL of the test compound, and 40 μL of anandamide [1-^3H-ethanolamine] (^3H-AEA, Perkin-Elmer, 10.3 Ci/mmol), which was added last, for a final tracer concentration of 80 nM. The reaction mixture was incubated at rt for 1 h. During the incubation, 96-well Multiscreen filter plates (catalog number MAFCNOB50; Millipore, Bedford, […]., USA) were loaded with 25 μL of activated charcoal (Multiscreen column loader, catalog number MACL09625, Millipore) and washed once with 100 μL of MeOH. Also during the incubation, 96-well DYNEX MicroLite plates (catalog number NL510410) were loaded with 100 μL of MicroScint40 (catalog number 6013641, Packard Bioscience, Meriden, Conn., USA). After the 1 h incubation, 60 μL of the reaction mixture were transferred to the charcoal plates, which were then assembled on top of the DYNEX plates using Centrifuge Alignment Frames (catalog number MACF09604, Millipore). The unbound labeled ethanolamine was centrifuged through to the bottom plate (5 min at 2000 rpm), which was preloaded with the scintillant, as described above. The plates were sealed and left at rt for 1 h before counting on a Hewlett Packard TopCount.

Test [3] concerns the target T2, FAAH. The test is described as follows: Assay Method 1: FAAH assay, T84 cell homogenate, 3H-anandamide hydrolysis. On the set-up: T84 frozen pellets (contents of 1-4×15 cm culture dishes) were homogenized in 300 mL of FAAH assay buffer; endogenous in cells; host or cells: T84 cells (homogenate). Particulars: 3H-AEA tracer 200 nM, rt 1 h. Here is the method:
The assay mixture was prepared from 50 μL of the cell homogenate, 10 μL of the test compound, and 40 μL of anandamide [1-^3H-ethanolamine] (^3H-AEA; Perkin-Elmer, 10.3 Ci/mmol), which was added last, for a final tracer concentration of 200 nM. The reaction mixture was incubated at rt for 1 hour (h). During the incubation, 96-well Multiscreen filter plates (catalog number MAFCNOB50; Millipore, Bedford, Mass. USA) were loaded with 25 μL of activated charcoal (Multiscreen column loader, catalog number MACL09625, Millipore) and washed once with 100 μL of MeOH. […] After the 1 h incubation, 60 μL of the reaction mixture were transferred to the charcoal plates, which were then assembled on top of the DYNEX plates using Centrifuge Alignment Frames (catalog number MACF09604, Millipore). The unbound, labeled ethanolamine was centrifuged through to the bottom plate (5 min at 2000 rpm), which was preloaded with the scintillant, as described above. The plates were sealed and left at rt for 1 h before counting on a Hewlett Packard TopCount.

In general, IC50 refers to the concentration at which inhibition is half-maximal. In test [1], `O=C(Nc1ccccc1)N1CCN(c2nc(-c3ccccc3)ns2)CC1` [Example 1, 4-(3-Phenyl-[1,2,4]thiadiazol-5-yl)-piperazine-1-carboxylic acid phenylamide] gave an IC50 of 46 nM.
Turning to `O=C(Nc1ccccc1)N1CCN(c2nc(N3CCCCC3)ns2)CC1` [Example 27, 4-(3-Piperidin-1-yl-[1,2,4]thiadiazol-5-yl)-piperazine-1-carboxylic acid phenylamide], the IC50 in test [1] was 1100 nM; in test [2], 260 nM.
On to `O=C(Nc1ccccc1)N1CCN(c2nc(N3CCCC3)ns2)CC1` [Example 28, 4-(3-Pyrrolidin-1-yl-[1,2,4]thiadiazol-5-yl)-piperazine-1-carboxylic acid phenylamide], for which the half-maximal inhibitory concentration (IC50) in test [1] is 5000 nM; in test [2] it was 3000 nM.
Consider `CC1CCN(c2nsc(N3CCN(C(=O)Nc4ccccc4)CC3)n2)CC1` [Example 29, 4-[3-(4-Methyl-piperidin-1-yl)-[1,2,4]thiadiazol-5-yl]-piperazine-1-carboxylic acid phenylamide], for which the IC50 in test [1] was 5000 nM; in test [2] it was greater than 10000 nM.
The corresponding values for `O=C(Nc1ncccn1)N1CCN(c2nc(-c3ccccc3)ns2)CC1` [Example 31, 4-(3-Phenyl-[1,2,4]thiadiazol-5-yl)-piperazine-1-carboxylic acid pyrimidin-2-ylamide] are 30 nM and 160 nM.
The corresponding values for `O=C(Nc1nccs1)N1CCN(c2nc(-c3ccccc3)ns2)CC1` [Example 32, 4-(3-Phenyl-[1,2,4]thiadiazol-5-yl)-piperazine-1-carboxylic acid thiazol-2-ylamide] are 77 nM and 450 nM.
With `O=C(Nc1ccncc1)N1CCN(c2nc(-c3ccccc3)ns2)CC1` [Example 33, 4-(3-Phenyl-[1,2,4]thiadiazol-5-yl)-piperazine-1-carboxylic acid pyridin-4-ylamide], the values for the concentration for half-maximal inhibition (IC50) in test [1] and in test [3] were 18 nM and 28 nM, respectively.
Regarding `Cc1cccc(-c2nsc(N3CCN(C(=O)Nc4ccccc4)CC3)n2)c1` [Example 38, 4-(3-m-Tolyl-[1,2,4]thiadiazol-5-yl)-piperazine-1-carboxylic acid phenylamide], the results for the 50% inhibitory concentration (IC50) in test [1] and in test [2] were 84 nM and 43 nM, respectively.
Take `O=C(Nc1ccccc1)N1CCN(c2nc(-c3cc(Cl)cc(Cl)c3)ns2)CC1` [Example 39, 4-[3-(3,5-Dichloro-phenyl)-[1,2,4]thiadiazol-5-yl]-piperazine-1-carboxylic acid phenylamide]: the 50% inhibitory concentration (IC50) in test [1] turned out to be 57 nM; in test [2] it was 60 nM.
For `O=C(Nc1ccccc1)N1CCN(c2nc(-c3ccco3)ns2)CC1` [Example 40, 4-(3-Furan-2-yl-[1,2,4]thiadiazol-5-yl)-piperazine-1-carboxylic acid phenylamide] the same measures were 2000 nM and 540 nM.
Turning to `O=C(Nc1ccccc1)N1CCN(c2nc(-c3ccoc3)ns2)CC1` [Example 41, 4-(3-Furan-3-yl-[1,2,4]thiadiazol-5-yl)-piperazine-1-carboxylic acid phenylamide], the IC50 in test [1] came out at 590 nM; in test [2], 350 nM.
With `O=C(Nc1ccccc1)N1CCN(c2nc(-c3cccs3)ns2)CC1` [Example 42, 4-(3-Thiophen-2-yl-[1,2,4]thiadiazol-5-yl)-piperazine-1-carboxylic acid phenylamide], the IC50 in test [1] turned out to be 300 nM; in test [2], 60 nM.
In the case of `O=C(Nc1ccccc1)N1CCN(c2nc(-c3ccsc3)ns2)CC1` [Example 43, 4-(3-Thiophen-3-yl-[1,2,4]thiadiazol-5-yl)-piperazine-1-carboxylic acid phenylamide], the IC50 came to 120 nM in test [1] and 130 nM in test [2].
